# Experimental data from PubChem BioAssay (NCI).
#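 Abbreviation: GI50, concentration required for 50% inhibition of growth. Definition used: TGI = concentration required for complete inhibition of growth.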
# Key:
# Test in all cases: growth of human tumour cells (NCI), 384-well format
# BT-549 breast = tested on: BT-549 breast
# IGROV1 ovarian = tested on: IGROV1 ovarian
# OVCAR-5 ovarian = tested on: OVCAR-5 ovarian
# MDA-MB-468 breast = tested on: MDA-MB-468 breast
# HCC-2998 colon = tested on: HCC-2998 colon
# PC-3 prostate = tested on: PC-3 prostate
# SK-MEL-28 melanoma = tested on: SK-MEL-28 melanoma
# SK-OV-3 ovarian = tested on: SK-OV-3 ovarian
# UACC-62 melanoma = tested on: UACC-62 melanoma
# SW-620 colon = tested on: SW-620 colon
# NCI-H322M lung = tested on: NCI-H322M lung
# SN12C renal = tested on: SN12C renal
# ACHN renal = tested on: ACHN renal
# KM12 colon = tested on: KM12 colon
# SF-268 CNS = tested on: SF-268 CNS
# MDA-MB-435 melanoma = tested on: MDA-MB-435 melanoma
# HL-60(TB) leukemia = tested on: HL-60(TB) leukemia
# 786-0 renal = tested on: 786-0 renal
# NCI-H460 NSCLC = tested on: NCI-H460 NSCLC
# NCI-H226 lung = tested on: NCI-H226 lung
# MOLT-4 leukemia = tested on: MOLT-4 leukemia
# A549 NSCLC = tested on: A549 NSCLC
# COLO 205 colon = tested on: COLO 205 colon
# OVCAR-3 ovarian = tested on: OVCAR-3 ovarian
# NCI/ADR-RES ovarian = tested on: NCI/ADR-RES ovarian
# HS 578T breast = tested on: HS 578T breast
# HCT-15 colon = tested on: HCT-15 colon
# MALME-3M melanoma = tested on: MALME-3M melanoma
# RXF 393 renal = tested on: RXF 393 renal
# MDA-MB-231 breast = tested on: MDA-MB-231 breast
# U251 glioblastoma = tested on: U251 glioblastoma
# SF-295 CNS = tested on: SF-295 CNS
# UO-31 renal = tested on: UO-31 renal
# SNB-75 CNS = tested on: SNB-75 CNS
# NCI-H522 lung = tested on: NCI-H522 lung
# CCRF-CEM leukemia = tested on: CCRF-CEM leukemia
# EKVX NSCLC = tested on: EKVX NSCLC
# OVCAR-8 ovarian = tested on: OVCAR-8 ovarian
# HOP-62 NSCLC = tested on: HOP-62 NSCLC
# NCI-H23 lung = tested on: NCI-H23 lung
# M14 melanoma = tested on: M14 melanoma
# SF-539 CNS = tested on: SF-539 CNS
# HCT-116 colon = tested on: HCT-116 colon
# LOX IMVI melanoma = tested on: LOX IMVI melanoma
# HT29 colon = tested on: HT29 colon
# RPMI-8226 leukemia = tested on: RPMI-8226 leukemia
# A498 renal = tested on: A498 renal
# SNB-19 CNS = tested on: SNB-19 CNS
# TK-10 renal = tested on: TK-10 renal
# T-47D breast = tested on: T-47D breast
# OVCAR-4 ovarian = tested on: OVCAR-4 ovarian
# UACC-257 melanoma = tested on: UACC-257 melanoma
# DU-145 prostate = tested on: DU-145 prostate
# HOP-92 NSCLC = tested on: HOP-92 NSCLC
# SK-MEL-5 melanoma = tested on: SK-MEL-5 melanoma
# MCF7 breast = tested on: MCF7 breast
# CAKI-1 renal = tested on: CAKI-1 renal
compound,measurement,setting,value
C[C@H]1Oc2cc(cnc2N)-c2c(nn(C)c2C#N)CN(C)C(=O)c2ccc(F)cc21,GI50,BT-549 breast,> 100 µM
same,TGI,BT-549 breast,> 100 µM
same,GI50,IGROV1 ovarian,26.1 µM
same,TGI,IGROV1 ovarian,> 83.6 µM
same,GI50,OVCAR-5 ovarian,37.7 µM
same,TGI,OVCAR-5 ovarian,> 100 µM
same,GI50,MDA-MB-468 breast,23.8 µM
same,TGI,MDA-MB-468 breast,> 86.2 µM
same,GI50,HCC-2998 colon,> 100 µM
same,TGI,HCC-2998 colon,> 100 µM
same,GI50,PC-3 prostate,> 100 µM
same,TGI,PC-3 prostate,> 100 µM
same,GI50,SK-MEL-28 melanoma,> 79.1 µM
same,TGI,SK-MEL-28 melanoma,> 100 µM
same,GI50,SK-OV-3 ovarian,68.2 µM
same,TGI,SK-OV-3 ovarian,> 100 µM
same,GI50,UACC-62 melanoma,32.8 µM
same,TGI,UACC-62 melanoma,> 100 µM
same,GI50,SW-620 colon,> 100 µM
same,TGI,SW-620 colon,> 100 µM
same,GI50,NCI-H322M lung,23.6 µM
same,TGI,NCI-H322M lung,> 78.6 µM
same,GI50,SN12C renal,61.6 µM
same,TGI,SN12C renal,> 100 µM
same,GI50,ACHN renal,11.4 µM
same,TGI,ACHN renal,> 24.9 µM
same,GI50,KM12 colon,0.364 µM
same,TGI,KM12 colon,> 100 µM
same,GI50,SF-268 CNS,47.3 µM
same,TGI,SF-268 CNS,> 100 µM
same,GI50,MDA-MB-435 melanoma,> 100 µM
same,TGI,MDA-MB-435 melanoma,> 100 µM
same,GI50,HL-60(TB) leukemia,63.8 µM
same,TGI,HL-60(TB) leukemia,> 100 µM
same,GI50,786-0 renal,49.7 µM
same,TGI,786-0 renal,> 100 µM
same,GI50,NCI-H460 NSCLC,35.7 µM
same,TGI,NCI-H460 NSCLC,> 100 µM
same,GI50,NCI-H226 lung,23 µM
same,TGI,NCI-H226 lung,> 73.1 µM
same,GI50,MOLT-4 leukemia,4.84 µM
same,TGI,MOLT-4 leukemia,18.8 µM
same,GI50,A549 NSCLC,22 µM
same,TGI,A549 NSCLC,> 100 µM
same,GI50,COLO 205 colon,11.1 µM
same,TGI,COLO 205 colon,> 84.1 µM
same,GI50,OVCAR-3 ovarian,> 88 µM
same,TGI,OVCAR-3 ovarian,> 100 µM
same,GI50,NCI/ADR-RES ovarian,41.6 µM
same,TGI,NCI/ADR-RES ovarian,> 100 µM
same,GI50,HS 578T breast,19.9 µM
same,TGI,HS 578T breast,> 100 µM
same,GI50,HCT-15 colon,91.9 µM
same,TGI,HCT-15 colon,> 100 µM
same,GI50,MALME-3M melanoma,26.2 µM
same,TGI,MALME-3M melanoma,> 100 µM
same,GI50,RXF 393 renal,11.6 µM
same,TGI,RXF 393 renal,> 63.1 µM
same,GI50,MDA-MB-231 breast,14.6 µM
same,TGI,MDA-MB-231 breast,84.5 µM
same,GI50,U251 glioblastoma,> 100 µM
same,TGI,U251 glioblastoma,> 100 µM
same,GI50,SF-295 CNS,72.8 µM
same,TGI,SF-295 CNS,> 100 µM
same,GI50,UO-31 renal,37.3 µM
same,TGI,UO-31 renal,> 54 µM
same,GI50,SNB-75 CNS,34.4 µM
same,TGI,SNB-75 CNS,> 84.7 µM
same,GI50,NCI-H522 lung,33.7 µM
same,TGI,NCI-H522 lung,99.5 µM
same,GI50,CCRF-CEM leukemia,57.1 µM
same,TGI,CCRF-CEM leukemia,> 100 µM
same,GI50,EKVX NSCLC,9.26 µM
same,TGI,EKVX NSCLC,44.1 µM
same,GI50,OVCAR-8 ovarian,> 100 µM
same,TGI,OVCAR-8 ovarian,> 100 µM
same,GI50,HOP-62 NSCLC,15.7 µM
same,TGI,HOP-62 NSCLC,> 100 µM
same,GI50,NCI-H23 lung,24.3 µM
same,TGI,NCI-H23 lung,> 100 µM
same,GI50,M14 melanoma,56.3 µM
same,TGI,M14 melanoma,> 100 µM
same,GI50,SF-539 CNS,> 100 µM
same,TGI,SF-539 CNS,> 100 µM
same,GI50,HCT-116 colon,32.1 µM
same,TGI,HCT-116 colon,> 100 µM
same,GI50,LOX IMVI melanoma,> 71.9 µM
same,TGI,LOX IMVI melanoma,> 100 µM
same,GI50,HT29 colon,18 µM
same,TGI,HT29 colon,> 100 µM
same,GI50,RPMI-8226 leukemia,57 µM
same,TGI,RPMI-8226 leukemia,> 100 µM
same,GI50,A498 renal,> 95.6 µM
same,TGI,A498 renal,> 100 µM
same,GI50,SNB-19 CNS,> 100 µM
same,TGI,SNB-19 CNS,> 100 µM
same,GI50,TK-10 renal,> 92.9 µM
same,TGI,TK-10 renal,> 100 µM
same,GI50,T-47D breast,57.2 µM
same,TGI,T-47D breast,> 100 µM
same,GI50,OVCAR-4 ovarian,> 100 µM
same,TGI,OVCAR-4 ovarian,> 100 µM
same,GI50,UACC-257 melanoma,> 100 µM
same,TGI,UACC-257 melanoma,> 100 µM
same,GI50,DU-145 prostate,49.8 µM
same,TGI,DU-145 prostate,> 100 µM
same,GI50,HOP-92 NSCLC,11 µM
same,TGI,HOP-92 NSCLC,67.6 µM
same,GI50,SK-MEL-5 melanoma,50.2 µM
same,TGI,SK-MEL-5 melanoma,> 100 µM
same,GI50,MCF7 breast,17.5 µM
same,TGI,MCF7 breast,> 100 µM
same,GI50,CAKI-1 renal,26.5 µM
same,TGI,CAKI-1 renal,> 100 µM
